Patent US20080009418A1, “Selective Inhibitors” (Alchemia LTD., priority 2004, published 2008)

Legend:
Human Melanocortin (MC3) = biological target: T1, Human Melanocortin (MC3) (Homo sapiens, UniProt P41968); assay: Radioligand binding, human melanocortin MC3 membranes, FlashPlate, [125I]-NDP-αMSH; settings: compound at 10 μM, [125I]-NDP-αMSH
T1 construct: purchased Perkin Elmer Biosignal
Summary of the method: (§1)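 Cloned human receptor membranes were coated onto FlashPlate wells and incubated with radioligand and compound (added from a 0.5 mM DMSO daughter plate) for 1 hour at room temperature in the dark. Scintillation counting gave percent inhibition, with DMSO defining total and reference ligand defining non-specific binding.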

[1] = biological target: T2, Human neuropeptide Y (NPY-Y1) (Homo sapiens, UniProt P25929); assay: Radioligand binding, human neuropeptide Y NPY-Y1 membranes, FlashPlate, [125I]-PYY; settings: compound at 10 μM, [125I]-PYY
T2 construct: purchased Perkin Elmer Biosignal
T2 sequence (P25929 1-384): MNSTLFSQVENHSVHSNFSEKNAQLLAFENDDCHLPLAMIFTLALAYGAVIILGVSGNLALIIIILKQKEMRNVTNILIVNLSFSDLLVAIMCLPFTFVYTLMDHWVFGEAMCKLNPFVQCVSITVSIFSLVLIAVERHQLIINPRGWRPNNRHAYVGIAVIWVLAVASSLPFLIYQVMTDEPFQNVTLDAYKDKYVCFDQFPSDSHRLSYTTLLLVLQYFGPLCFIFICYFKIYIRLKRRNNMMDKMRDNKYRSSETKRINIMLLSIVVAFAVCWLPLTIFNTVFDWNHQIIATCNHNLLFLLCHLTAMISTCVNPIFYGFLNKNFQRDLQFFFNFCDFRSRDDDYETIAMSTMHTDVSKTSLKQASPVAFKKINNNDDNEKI
Summary of the method: as §1

[2] = biological target: T3, Human melanin-concentrating hormone (MCH1) (Homo sapiens, UniProt Q99705); assay: Radioligand binding, human melanin-concentrating hormone MCH1 membranes, FlashPlate, [125I]-S36057; settings: compound at 10 μM
T3 construct: purchased Perkin Elmer Biosignal
T3 sequence (Q99705 whole entry): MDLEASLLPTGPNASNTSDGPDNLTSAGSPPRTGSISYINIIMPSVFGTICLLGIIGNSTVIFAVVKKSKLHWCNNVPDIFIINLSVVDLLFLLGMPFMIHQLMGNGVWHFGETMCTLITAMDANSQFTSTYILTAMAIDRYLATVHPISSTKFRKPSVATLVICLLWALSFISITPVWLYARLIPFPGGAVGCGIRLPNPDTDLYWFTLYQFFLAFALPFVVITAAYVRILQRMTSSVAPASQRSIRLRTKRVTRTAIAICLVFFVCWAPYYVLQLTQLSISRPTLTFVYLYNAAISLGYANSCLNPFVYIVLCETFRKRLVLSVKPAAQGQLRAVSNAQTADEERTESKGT
Summary of the method: as §1

Human melanocortin (MC5) = biological target: T4, Human melanocortin (MC5) (Homo sapiens, UniProt P33032); assay: Radioligand binding, human melanocortin MC5 membranes, FlashPlate, [125I]-NDP-αMSH; settings: compound at 10 μM, [125I]-NDP-αMSH
T4 construct: purchased Perkin Elmer Biosignal
T4 sequence (P33032 whole entry): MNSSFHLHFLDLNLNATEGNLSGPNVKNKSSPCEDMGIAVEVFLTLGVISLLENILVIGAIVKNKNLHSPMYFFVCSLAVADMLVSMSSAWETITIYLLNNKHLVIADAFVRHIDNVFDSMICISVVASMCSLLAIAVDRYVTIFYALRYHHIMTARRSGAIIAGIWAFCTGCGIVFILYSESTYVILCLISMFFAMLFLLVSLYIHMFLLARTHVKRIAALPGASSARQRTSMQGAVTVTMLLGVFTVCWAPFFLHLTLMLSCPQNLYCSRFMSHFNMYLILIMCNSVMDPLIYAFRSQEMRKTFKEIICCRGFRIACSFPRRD
Summary of the method: as §1

Mouse urotensin (mUR2) = biological target: T5, Mouse urotensin (mUR2) (Mus musculus, UniProt Q8VIH9); assay: Radioligand binding, mouse urotensin mUR2 membranes, FlashPlate, [125I]-Urotensin II; settings: compound at 10 μM, [125I]-Urotensin II
T5 construct: purchased Perkin Elmer Biosignal
T5 sequence (Q8VIH9 1-385): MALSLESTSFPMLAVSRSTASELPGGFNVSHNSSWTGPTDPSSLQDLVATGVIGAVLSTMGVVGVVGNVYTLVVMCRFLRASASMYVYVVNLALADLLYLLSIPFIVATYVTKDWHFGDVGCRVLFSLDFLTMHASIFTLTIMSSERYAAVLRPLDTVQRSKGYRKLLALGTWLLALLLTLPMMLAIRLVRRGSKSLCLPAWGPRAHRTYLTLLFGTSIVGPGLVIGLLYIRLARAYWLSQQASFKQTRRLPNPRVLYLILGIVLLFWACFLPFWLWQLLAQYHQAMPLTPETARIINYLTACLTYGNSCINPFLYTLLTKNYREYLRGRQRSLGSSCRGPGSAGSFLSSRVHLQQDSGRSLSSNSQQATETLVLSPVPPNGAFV
Summary of the method: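 Cloned mouse urotensin (mUR2) receptor membranes from Perkin Elmer Biosignal were immobilized in FlashPlate microplates using a proprietary coating. Each well got 19.5 μl buffer, then 0.5 μl of DMSO, reference ligand, or compound. Adding 5 μl of [125I]-Urotensin II, diluted to 5× final concentration in binding buffer, started binding. Plates were sealed with TopSeal-A and incubated 1 hour at room temperature in the dark. Wells were counted for 30 seconds each on a TopCount after a 60-second delay, and percentage inhibition was calculated.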

Human μ-opioid (MOP) = biological target: T6, Human μ-opioid (MOP) (Homo sapiens, UniProt P35372); assay: Radioligand binding, human μ-opioid (MOP) membranes, FlashPlate, [3H]-Naloxone; settings: compound at 10 μM, [3H]-Naloxone
T6 construct: purchased Perkin Elmer Biosignal
T6 sequence (P35372 whole entry): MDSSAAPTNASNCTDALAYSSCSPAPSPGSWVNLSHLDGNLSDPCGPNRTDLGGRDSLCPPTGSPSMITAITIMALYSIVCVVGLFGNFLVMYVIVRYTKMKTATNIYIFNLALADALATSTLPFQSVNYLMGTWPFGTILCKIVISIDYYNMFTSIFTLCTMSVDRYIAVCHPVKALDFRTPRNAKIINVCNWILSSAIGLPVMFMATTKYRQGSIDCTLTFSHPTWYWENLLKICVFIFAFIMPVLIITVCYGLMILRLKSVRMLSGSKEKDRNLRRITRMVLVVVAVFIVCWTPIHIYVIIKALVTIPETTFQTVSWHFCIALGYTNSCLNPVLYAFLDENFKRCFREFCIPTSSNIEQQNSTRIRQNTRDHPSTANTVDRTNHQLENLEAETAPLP
Summary of the method: as §1

Human neurokinin (NK1) = biological target: T7, Human neurokinin (NK1) (Homo sapiens, UniProt P25103); assay: Radioligand binding, human neurokinin NK1 membranes, filtration, [125I]-Substance P; settings: compound at 10 μM, [125I]-Substance P
T7 construct: purchased Perkin Elmer Biosignal
T7 sequence (P25103 whole entry): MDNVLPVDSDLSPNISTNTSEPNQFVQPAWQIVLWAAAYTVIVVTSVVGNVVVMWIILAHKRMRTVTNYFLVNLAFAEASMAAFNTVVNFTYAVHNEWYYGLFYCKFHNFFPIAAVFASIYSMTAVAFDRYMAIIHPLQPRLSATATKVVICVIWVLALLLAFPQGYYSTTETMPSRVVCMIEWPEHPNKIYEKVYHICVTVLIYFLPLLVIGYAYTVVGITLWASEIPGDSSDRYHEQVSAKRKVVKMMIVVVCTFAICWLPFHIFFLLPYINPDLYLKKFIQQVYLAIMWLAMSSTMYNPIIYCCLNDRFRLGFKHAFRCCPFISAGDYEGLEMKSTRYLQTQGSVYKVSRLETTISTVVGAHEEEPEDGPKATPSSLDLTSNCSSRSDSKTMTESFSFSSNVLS
Summary of the method: (§2)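 Percent inhibition of radioligand binding measured on recombinant human membranes: NK1 with [125I]-Substance P, KOP with [3H]-Diprenorphine. Incubation 1 h at room temperature, then harvest onto 0.3% PEI-soaked filters, cold Tris-HCl pH 7.4 washes and scintillation counting; non-specific binding from reference ligand wells.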

Human κ-Opioid (KOP) = biological target: T8, Human κ-Opioid (KOP) (Homo sapiens, UniProt P41145); assay: Radioligand binding, human κ-opioid (KOP) membranes, filtration, [3H]-Diprenorphine; settings: compound at 10 μM, [3H]-Diprenorphine
T8 construct: purchased Perkin Elmer Biosignal
T8 sequence (P41145 whole entry): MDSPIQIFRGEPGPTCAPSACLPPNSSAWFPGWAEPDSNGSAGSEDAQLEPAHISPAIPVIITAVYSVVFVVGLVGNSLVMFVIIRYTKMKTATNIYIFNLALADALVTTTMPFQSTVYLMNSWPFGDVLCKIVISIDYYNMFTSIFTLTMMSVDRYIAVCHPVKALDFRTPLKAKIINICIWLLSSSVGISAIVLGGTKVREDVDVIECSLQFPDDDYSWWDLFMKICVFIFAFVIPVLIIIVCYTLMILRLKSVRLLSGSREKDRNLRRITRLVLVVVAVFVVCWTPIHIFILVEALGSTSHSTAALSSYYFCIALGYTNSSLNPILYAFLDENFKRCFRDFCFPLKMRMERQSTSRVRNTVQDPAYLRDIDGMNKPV
Summary of the method: as §2

Human Melanocortin (MC4) = biological target: T9, Human Melanocortin (MC4) (Homo sapiens, UniProt P32245); assay: Radioligand binding, human melanocortin MC4 membranes, FlashPlate, [125I]-NDP-αMSH; settings: compound at 10 μM, [125I]-NDP-αMSH
T9 construct: purchased Perkin Elmer Biosignal
T9 sequence (P32245 whole entry): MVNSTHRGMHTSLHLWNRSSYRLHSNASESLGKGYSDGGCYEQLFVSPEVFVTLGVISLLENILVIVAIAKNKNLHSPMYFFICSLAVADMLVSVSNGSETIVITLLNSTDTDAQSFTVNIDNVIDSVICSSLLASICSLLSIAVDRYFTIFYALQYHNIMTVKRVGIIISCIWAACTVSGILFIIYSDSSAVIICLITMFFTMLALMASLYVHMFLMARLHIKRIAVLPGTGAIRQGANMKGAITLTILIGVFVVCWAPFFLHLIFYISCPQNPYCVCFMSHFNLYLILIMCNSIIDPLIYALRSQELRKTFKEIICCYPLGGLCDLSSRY
Summary of the method: as §1

Human δ-opioid (DOP) = biological target: T10, Human δ-opioid (DOP) (Homo sapiens, UniProt P41143); assay: Radioligand binding, human δ-opioid (DOP) membranes, FlashPlate, [3H]-Bremazocine; settings: compound at 10 μM, [3H]-Bremazocine
T10 construct: purchased Perkin Elmer Biosignal
T10 sequence (P41143 whole entry): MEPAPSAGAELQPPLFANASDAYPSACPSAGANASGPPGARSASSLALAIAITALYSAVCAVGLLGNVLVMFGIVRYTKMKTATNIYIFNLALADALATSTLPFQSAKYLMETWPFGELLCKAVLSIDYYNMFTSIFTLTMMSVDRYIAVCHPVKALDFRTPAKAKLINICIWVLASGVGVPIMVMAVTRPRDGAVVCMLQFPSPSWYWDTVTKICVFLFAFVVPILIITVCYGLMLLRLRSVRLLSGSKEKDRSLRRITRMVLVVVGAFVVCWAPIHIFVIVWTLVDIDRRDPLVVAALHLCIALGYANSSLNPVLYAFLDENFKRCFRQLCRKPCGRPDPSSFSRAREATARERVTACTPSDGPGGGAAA
Summary of the method: as §1

Human opioid (ORL1) = biological target: T11, Human opioid (ORL1) (Homo sapiens, UniProt P41146); assay: Radioligand binding, human opioid ORL1 membranes, FlashPlate, [125I]-Nociceptin; settings: compound at 10 μM, [125I]-Nociceptin
T11 construct: purchased Perkin Elmer Biosignal
T11 sequence (P41146 whole entry): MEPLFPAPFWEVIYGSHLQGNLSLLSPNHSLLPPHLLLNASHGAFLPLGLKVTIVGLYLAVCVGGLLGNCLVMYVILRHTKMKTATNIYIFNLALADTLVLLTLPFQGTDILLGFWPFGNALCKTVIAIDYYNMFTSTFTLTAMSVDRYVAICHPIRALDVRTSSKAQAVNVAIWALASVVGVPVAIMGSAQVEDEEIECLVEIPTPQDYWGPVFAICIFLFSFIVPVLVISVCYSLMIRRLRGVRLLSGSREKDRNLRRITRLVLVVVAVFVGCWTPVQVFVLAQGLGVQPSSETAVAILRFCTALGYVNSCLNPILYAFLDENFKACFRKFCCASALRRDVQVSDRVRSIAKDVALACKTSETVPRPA
Summary of the method: as §1

T1 sequence (P41968 whole entry): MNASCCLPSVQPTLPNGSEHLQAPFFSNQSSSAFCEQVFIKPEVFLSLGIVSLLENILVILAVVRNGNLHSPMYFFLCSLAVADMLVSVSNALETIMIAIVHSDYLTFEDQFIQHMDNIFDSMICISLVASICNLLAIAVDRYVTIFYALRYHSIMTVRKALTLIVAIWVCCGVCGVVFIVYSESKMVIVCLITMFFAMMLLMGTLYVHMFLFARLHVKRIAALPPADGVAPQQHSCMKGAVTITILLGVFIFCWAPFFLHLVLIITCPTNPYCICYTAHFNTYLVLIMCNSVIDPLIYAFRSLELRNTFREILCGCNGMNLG

NCCC(=O)N[C@H]1C(OCc2ccc3ccccc3c2)O[C@H](COCc2ccccc2)[C@@H](O)[C@@H]1OCc1ccc(Cl)cc1 (stereo partly drawn) [compound 438]
A3: inhibition of radioligand binding (Human Melanocortin (MC3); human MC3 membranes): − (“−” indicates less than 50% inhibition at 10 μM)
A9: inhibition of radioligand binding ([1]; human NPY-Y1 membranes): − (“−” indicates less than 50% inhibition at 10 μM)
A6: inhibition of radioligand binding ([2]; [125I]-S36057, human MCH1 membranes, 10 µM): + (“+” indicates greater than 50% inhibition at 10 μM)
A5: inhibition of radioligand binding (Human melanocortin (MC5); human MC5 membranes, 10 µM): − (“−” indicates less than 50% inhibition at 10 μM)
A11: inhibition of radioligand binding (Mouse urotensin (mUR2); mouse mUR2 membranes): − (“−” indicates less than 50% inhibition at 10 μM)
A7: inhibition of radioligand binding (Human μ-opioid (MOP); human MOP membranes): − (“−” indicates less than 50% inhibition at 10 μM)
A8: inhibition of radioligand binding (Human neurokinin (NK1); human NK1 membranes): + (“+” indicates greater than 50% inhibition at 10 μM)
A2: inhibition of radioligand binding (Human κ-Opioid (KOP); human KOP membranes): − (“−” indicates less than 50% inhibition at 10 μM)
A4: inhibition of radioligand binding (Human Melanocortin (MC4); human MC4 membranes, 10 µM): − (“−” indicates less than 50% inhibition at 10 μM)
A1: inhibition of radioligand binding (Human δ-opioid (DOP); human DOP membranes): − (“−” indicates less than 50% inhibition at 10 μM)
A10: inhibition of radioligand binding (Human opioid (ORL1); human ORL1 membranes): − (“−” indicates less than 50% inhibition at 10 μM)

NCCC(=O)NC1C(OCc2ccccc2)OC(COCc2ccc3ccccc3c2)C(O)C1OCc1ccc(Cl)cc1 (stereo not drawn) [compound 364]
A3: inhibition of radioligand binding, human melanocortin (MC3) (Human Melanocortin (MC3)): + (“+” indicates greater than 50% inhibition at 10 μM)
A9: inhibition of radioligand binding, human neuropeptide Y (NPY-Y1) [1]: − (“−” indicates less than 50% inhibition at 10 μM)
A6: inhibition of radioligand binding, human melanin-concentrating hormone (MCH1) ([2]; [125I]-S36057): − (“−” indicates less than 50% inhibition at 10 μM)
A5: inhibition of radioligand binding, human melanocortin (MC5) (Human melanocortin (MC5)): + (“+” indicates greater than 50% inhibition at 10 μM)
A11: inhibition of radioligand binding, mouse urotensin (mUR2) (Mouse urotensin (mUR2)): − (“−” indicates less than 50% inhibition at 10 μM)
A7: inhibition of radioligand binding, human μ-opioid (MOP) (Human μ-opioid (MOP)): − (“−” indicates less than 50% inhibition at 10 μM)
A8: inhibition of radioligand binding, human neurokinin (NK1) (Human neurokinin (NK1)): + (“+” indicates greater than 50% inhibition at 10 μM)
A2: inhibition of radioligand binding, human κ-opioid (KOP) (Human κ-Opioid (KOP)): − (“−” indicates less than 50% inhibition at 10 μM)
A4: inhibition of radioligand binding, human melanocortin (MC4) (Human Melanocortin (MC4)): + (“+” indicates greater than 50% inhibition at 10 μM)
A1: inhibition of radioligand binding, human δ-opioid (DOP) (Human δ-opioid (DOP)): − (“−” indicates less than 50% inhibition at 10 μM)
A10: inhibition of radioligand binding, human opioid (ORL1) (Human opioid (ORL1)): − (“−” indicates less than 50% inhibition at 10 μM)

COCC1OC(OCCc2ccccc2)C(NC(=O)CCCN)C(OCc2ccc3ccccc3c2)C1O (stereo not drawn) [compound 228]
A3: inhibition of radioligand binding (Human Melanocortin (MC3); FlashPlate): − (“−” indicates less than 50% inhibition at 10 μM)
A9: inhibition of radioligand binding ([1]; FlashPlate): − (“−” indicates less than 50% inhibition at 10 μM)
A6: inhibition of radioligand binding ([2]; [125I]-S36057, FlashPlate): − (“−” indicates less than 50% inhibition at 10 μM)
A5: inhibition of radioligand binding (Human melanocortin (MC5); FlashPlate): + (“+” indicates greater than 50% inhibition at 10 μM)
A11: inhibition of radioligand binding (Mouse urotensin (mUR2); FlashPlate): − (“−” indicates less than 50% inhibition at 10 μM)
A7: inhibition of radioligand binding (Human μ-opioid (MOP); FlashPlate): − (“−” indicates less than 50% inhibition at 10 μM)
A8: inhibition of radioligand binding (Human neurokinin (NK1); filtration): + (“+” indicates greater than 50% inhibition at 10 μM)
A2: inhibition of radioligand binding (Human κ-Opioid (KOP); filtration): − (“−” indicates less than 50% inhibition at 10 μM)
A4: inhibition of radioligand binding (Human Melanocortin (MC4); FlashPlate): − (“−” indicates less than 50% inhibition at 10 μM)
A1: inhibition of radioligand binding (Human δ-opioid (DOP); FlashPlate): − (“−” indicates less than 50% inhibition at 10 μM)
A10: inhibition of radioligand binding (Human opioid (ORL1); FlashPlate): − (“−” indicates less than 50% inhibition at 10 μM)
